From patent publication US6399585B1, “In Utero treatment of CFTR-related deficiencies” (priority 1996, dated 2002)

Experiments:
cftr deficient mice = test: Survival of mice after in utero ATP or cftr treatment; assay type: in vivo, mouse
Description: (§1) Female heterozygous UNC knockout X C57bl/6 mouse 5th generation backcross mice were mated with either heterozygous and previously rescued homozygous knockout mice. At 15-16 days gestation animals were anesthetized as in Example (II)(C)(2) and the fetuses surgically exposed for injection. Virus (10^9 particles/ml of amniotic fluid) was injected into the amniotic fluid. Normal delivery of the animals was allowed to take place.
as §1, with “20 ul” for “Virus (10^9 particles/ml”, “a 20 mM ATP in sterile physiological saline” for “amniotic fluid)”

[1] = system: intracellular calcium stores; test: Intracellular calcium stores in intestines (Calcium Green, confocal microscopy); assay type: in vivo, mouse; conditions: cftr−/− mice, in utero ATP-treatment, examined at 65 days old
Description: (§2) All tissues were sectioned and washed in phosphate buffered saline. Stock solutions (1 mM) of stains obtained from Molecular Probes were used. Two microliters/ml of either CaGreen-AM. (Molecular Probes) or Rhodamine green-UTP (Molecular Probes) was added to the tissue, then incubated for 1-2 hrs All samples were examined on a Noran Odyssey CLSM with a Nikon Diaphot inverted microscope. The software used for the imaging was Noran's Intervision running on a SGI Indy workstation.
Calcium plays an integral role in secretion. […] Calcium Green™, a flourescent stain for intracellular calcium, was applied to cross-sections of both control and in utero cftr-treated cftr−/− and cftr+/− mice. All samples were examined by confocal microscopy.
Intracellular calcium stores were evaluated after in utero ATP rescue, as previously described.

UTP receptors = UTP receptors in intestines (Rhodamine green-UTP staining); assay type: in vivo, mouse; conditions: knockout mice, ATP rescue, 65 day old mice
Description: as §2
Multiple purinergic receptors and multiple signal transduction pathways are activated in different membrane domains of tracheal epithelia (Hwang, Schwiebert et al. 1996) (Devidas and Guggino 1997). Functional characterization of the P2 purinoceptor superfamily support a diverse functional role for ATP and related nucleotides in the regulation of tissue function (Williams 1996). To examine the possible role of these purinergic receptors, changes in UTP receptors in treated and normal intestines were examined using UTP labeled with fluorescent rhodamine green to stain sections of intestines.
Changes in UTP receptors in ATP-treated intestines were examined using UTP labeled with fluorescent rhodamine green to stain sections of intestines.

ENaC = molecular target: T1, ENaC (Homo sapiens, UniProt P37088+P51168+P51170); conditions: cited from earlier work
T1 sequence (P37088 1-669): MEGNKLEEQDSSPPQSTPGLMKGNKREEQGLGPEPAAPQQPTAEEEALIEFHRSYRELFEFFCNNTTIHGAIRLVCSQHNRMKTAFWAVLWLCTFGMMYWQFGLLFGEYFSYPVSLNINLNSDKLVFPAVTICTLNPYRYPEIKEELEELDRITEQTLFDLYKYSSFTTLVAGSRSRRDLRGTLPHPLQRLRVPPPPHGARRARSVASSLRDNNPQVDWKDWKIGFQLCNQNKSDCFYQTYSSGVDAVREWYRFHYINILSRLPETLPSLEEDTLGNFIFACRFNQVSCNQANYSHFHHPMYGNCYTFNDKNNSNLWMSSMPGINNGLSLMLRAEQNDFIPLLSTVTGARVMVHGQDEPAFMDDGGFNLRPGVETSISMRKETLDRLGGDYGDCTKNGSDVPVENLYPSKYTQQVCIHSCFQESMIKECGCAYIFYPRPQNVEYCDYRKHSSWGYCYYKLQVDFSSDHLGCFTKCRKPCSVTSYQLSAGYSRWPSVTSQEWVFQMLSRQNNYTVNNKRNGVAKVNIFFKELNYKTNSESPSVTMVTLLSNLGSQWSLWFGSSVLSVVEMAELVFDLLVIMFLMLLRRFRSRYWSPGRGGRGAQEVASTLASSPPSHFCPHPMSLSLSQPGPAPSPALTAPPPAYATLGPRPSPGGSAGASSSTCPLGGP
T1 sequence (P51168 1-640): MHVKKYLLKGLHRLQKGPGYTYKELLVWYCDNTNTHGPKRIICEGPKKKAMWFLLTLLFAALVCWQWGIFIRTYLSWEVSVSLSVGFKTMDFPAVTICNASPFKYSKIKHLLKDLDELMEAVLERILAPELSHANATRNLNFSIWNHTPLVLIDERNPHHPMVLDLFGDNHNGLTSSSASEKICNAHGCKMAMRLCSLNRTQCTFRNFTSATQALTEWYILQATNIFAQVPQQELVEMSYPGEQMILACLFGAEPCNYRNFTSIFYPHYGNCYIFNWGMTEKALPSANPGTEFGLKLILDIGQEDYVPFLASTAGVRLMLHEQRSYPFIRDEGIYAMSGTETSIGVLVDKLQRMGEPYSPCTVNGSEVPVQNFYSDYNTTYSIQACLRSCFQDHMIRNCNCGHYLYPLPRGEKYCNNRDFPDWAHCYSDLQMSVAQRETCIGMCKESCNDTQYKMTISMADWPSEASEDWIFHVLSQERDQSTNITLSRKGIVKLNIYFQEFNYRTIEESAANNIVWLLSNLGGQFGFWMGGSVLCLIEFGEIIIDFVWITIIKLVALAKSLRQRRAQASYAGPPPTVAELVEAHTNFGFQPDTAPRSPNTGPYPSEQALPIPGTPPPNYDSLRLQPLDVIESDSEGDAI
T1 sequence (P51170 1-649): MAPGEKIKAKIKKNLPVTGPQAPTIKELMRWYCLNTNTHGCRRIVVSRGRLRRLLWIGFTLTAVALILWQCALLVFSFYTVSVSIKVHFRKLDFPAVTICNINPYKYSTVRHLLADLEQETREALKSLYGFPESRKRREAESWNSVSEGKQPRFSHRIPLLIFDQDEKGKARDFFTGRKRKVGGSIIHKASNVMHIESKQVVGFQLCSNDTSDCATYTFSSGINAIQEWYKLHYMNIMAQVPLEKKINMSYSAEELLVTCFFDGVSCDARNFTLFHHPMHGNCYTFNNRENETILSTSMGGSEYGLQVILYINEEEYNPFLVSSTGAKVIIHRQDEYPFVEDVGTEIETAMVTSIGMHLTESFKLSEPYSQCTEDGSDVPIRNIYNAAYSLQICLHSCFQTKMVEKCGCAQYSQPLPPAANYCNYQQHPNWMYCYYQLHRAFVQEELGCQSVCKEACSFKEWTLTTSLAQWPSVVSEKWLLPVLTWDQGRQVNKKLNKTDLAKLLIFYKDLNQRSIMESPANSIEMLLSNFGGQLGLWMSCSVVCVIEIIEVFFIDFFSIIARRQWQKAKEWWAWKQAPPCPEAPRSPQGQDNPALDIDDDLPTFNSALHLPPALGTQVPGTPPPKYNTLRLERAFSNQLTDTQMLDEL

non-CFTR Cl- channels = conditions: cited from earlier work
[2] = Table 8, living greater than 60 days

Nc1ncnc2c1ncn2[C@@H]1O[C@H](COP(=O)(O)OP(=O)(O)OP(=O)(O)O)[C@@H](O)[C@H]1O [ATP, adenosine triphosphate]
survival of cftr deficient mice (cftr deficient mice; 20 ul of 20 mM ATP into amniotic fluid at 15-16 days gestation): improved the survival
+/− Survivors, number (cftr deficient mice; [2]): 9
−/− Survivors, number (cftr deficient mice; [2]): 3
+/+ Survivors, number (cftr deficient mice; Table 8, living greater than 60 days, treated at 15-16 days gestation): 4
+/+ Survivors (%) (cftr deficient mice; Table 8, share of survivors): 25%
+/− Survivors (%) (cftr deficient mice; Table 8, share of survivors): 56%
−/− Survivors (%) (cftr deficient mice; Table 8, share of survivors): 19%
toxicity inferred from genotype distribution of survivors (cftr deficient mice; regardless of genotype): non-toxic
intracellular Ca2+ stores in intestines [1]: restored intracellular Ca2+ in cells of the crypt
UTP receptors in intestines (UTP receptors): restored the UTP receptors

N=C(N)NC(=O)c1nc(Cl)c(N)nc1N [Amiloride]
ENaC conduction (ENaC): block conduction

Nc1nc(N)c2nc(-c3ccccc3)c(N)nc2n1 [triamterene]
ENaC conduction (ENaC): block conduction

O=c1ccn([C@@H]2O[C@H](COP(=O)(O)OP(=O)(O)OP(=O)(O)O)[C@@H](O)[C@H]2O)c(=O)[nH]1 [UTP, uridine triphosphate]
Cl- (and liquid) secretion (non-CFTR Cl- channels; aerosolized, CF airway epithelia): induces Cl- (and liquid) secretion
mucociliary clearance (non-CFTR Cl- channels; aerosolized, pilot studies in normal subjects): effective stimulator of mucociliary clearance
tolerability (non-CFTR Cl- channels; short-term aerosolized, normal subjects and patients with CF): well tolerated
